Measurements from article PMC12206033, “Selective inhibition of TRPV3 channel by natural rosmarinic acid and its analogs for alleviation of skin lesions through downregulation of NF-κB pathway” (The Journal of Biological Chemistry, 2025).
Changes are numbered by the printed parent chain.

Legend:
Type in all cases: cell-based
TRPV3 T636A = target: T1, TRPV3 T636A (Homo sapiens, UniProt Q8NET8, T636A); assay: whole-cell patch-clamp of hTRPV3 T636A mutant currents; conditions: ROSA 100 μM; 2-APB; read-out: inhibition of macroscopic hTRPV3 T636A currents
T1 construct: expressed in transfected cells; host or cells: HEK293T
T1 sequence (Q8NET8 1-790 T636A): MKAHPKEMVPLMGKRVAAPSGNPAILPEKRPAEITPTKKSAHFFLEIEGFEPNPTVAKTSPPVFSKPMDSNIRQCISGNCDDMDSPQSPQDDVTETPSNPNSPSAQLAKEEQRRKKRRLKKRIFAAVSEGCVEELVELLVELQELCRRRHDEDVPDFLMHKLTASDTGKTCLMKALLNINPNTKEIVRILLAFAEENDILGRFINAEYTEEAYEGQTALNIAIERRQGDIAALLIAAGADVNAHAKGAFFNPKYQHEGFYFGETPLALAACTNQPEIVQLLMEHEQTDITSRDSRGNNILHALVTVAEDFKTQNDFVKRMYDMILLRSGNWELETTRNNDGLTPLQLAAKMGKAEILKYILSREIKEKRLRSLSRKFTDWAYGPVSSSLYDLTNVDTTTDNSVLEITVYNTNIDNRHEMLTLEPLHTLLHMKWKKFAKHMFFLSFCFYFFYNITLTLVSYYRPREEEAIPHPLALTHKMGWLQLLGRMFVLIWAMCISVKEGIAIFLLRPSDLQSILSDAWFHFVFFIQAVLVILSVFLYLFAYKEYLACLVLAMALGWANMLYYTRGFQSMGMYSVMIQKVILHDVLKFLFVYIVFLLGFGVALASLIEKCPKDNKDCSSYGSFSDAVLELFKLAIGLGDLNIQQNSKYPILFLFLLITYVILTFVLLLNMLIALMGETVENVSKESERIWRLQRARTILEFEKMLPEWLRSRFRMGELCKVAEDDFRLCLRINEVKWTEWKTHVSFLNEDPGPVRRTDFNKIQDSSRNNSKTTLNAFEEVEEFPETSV
Experimental: (§1) HEK293T cell line was obtained from the Cell Resource Center, Peking Union Medical College. HEK293T cells were maintained in Dulbecco’s modified Eagle’s medium (DMEM, Gibco) supplemented with 10% fetal bovine serum at 37 °C with 5% CO2. […] The next day, determine the plasmid transfection status by observing green fluorescence based on expression of enhanced GFP as an indicator. […] When conducting experiments on HEK293T cells transfected with G573S point mutant TRPV3 plasmid, we replaced culture medium with or without compounds after 4 h of transfection and then observed green fluorescence of HEK293T cell after 10 h. As for the relative fluorescence intensity, we convert the image to 8 bit grayscale using ImageJ (Https://imagej.net/software/fiji/downloads) and set an appropriate threshold value to reduce background noise and enhance the image contrast.
(§2) All patch-clamp recordings were conducted 16 to 24 h after transfection using an EPC10 amplifier powered by PatchMaster software (HEKA) (https://www.heka.com/downloads/downloads_main.html#down_patchmaster) at room temperature. […] Currents were recorded at a potential ramp from −100 mV to +100 mV for 1000 ms with 1000-ms intervals (for whole-cell recordings) or a persistent potential of −60 mV (inside-out patch recordings). […]

TRPV3 T665A = target: T2, TRPV3 T665A (Homo sapiens, UniProt Q8NET8, T665A); assay: whole-cell patch-clamp of hTRPV3 T665A mutant currents; conditions: ROSA 100 μM; 2-APB; read-out: inhibition of macroscopic hTRPV3 T665A currents
T2 construct: expressed in transfected cells; host or cells: HEK293T
T2 sequence (Q8NET8 1-790 T665A): T1 sequence (Q8NET8 1-790 T636A) with A636T, T665A
Experimental: as §1, §2

hTRPA1 = target: T3, hTRPA1 (Homo sapiens, UniProt O75762); assay: whole-cell patch-clamp of hTRPA1 currents activated by allyl isothiocyanate; conditions: ROSA 50 μM; agonist allyl isothiocyanate 300 μM; read-out: inhibition of TRPA1 currents
T3 construct: expressed in transfected cells; host or cells: HEK293T
Experimental: as §1, §2

T3 sequence (O75762 whole entry): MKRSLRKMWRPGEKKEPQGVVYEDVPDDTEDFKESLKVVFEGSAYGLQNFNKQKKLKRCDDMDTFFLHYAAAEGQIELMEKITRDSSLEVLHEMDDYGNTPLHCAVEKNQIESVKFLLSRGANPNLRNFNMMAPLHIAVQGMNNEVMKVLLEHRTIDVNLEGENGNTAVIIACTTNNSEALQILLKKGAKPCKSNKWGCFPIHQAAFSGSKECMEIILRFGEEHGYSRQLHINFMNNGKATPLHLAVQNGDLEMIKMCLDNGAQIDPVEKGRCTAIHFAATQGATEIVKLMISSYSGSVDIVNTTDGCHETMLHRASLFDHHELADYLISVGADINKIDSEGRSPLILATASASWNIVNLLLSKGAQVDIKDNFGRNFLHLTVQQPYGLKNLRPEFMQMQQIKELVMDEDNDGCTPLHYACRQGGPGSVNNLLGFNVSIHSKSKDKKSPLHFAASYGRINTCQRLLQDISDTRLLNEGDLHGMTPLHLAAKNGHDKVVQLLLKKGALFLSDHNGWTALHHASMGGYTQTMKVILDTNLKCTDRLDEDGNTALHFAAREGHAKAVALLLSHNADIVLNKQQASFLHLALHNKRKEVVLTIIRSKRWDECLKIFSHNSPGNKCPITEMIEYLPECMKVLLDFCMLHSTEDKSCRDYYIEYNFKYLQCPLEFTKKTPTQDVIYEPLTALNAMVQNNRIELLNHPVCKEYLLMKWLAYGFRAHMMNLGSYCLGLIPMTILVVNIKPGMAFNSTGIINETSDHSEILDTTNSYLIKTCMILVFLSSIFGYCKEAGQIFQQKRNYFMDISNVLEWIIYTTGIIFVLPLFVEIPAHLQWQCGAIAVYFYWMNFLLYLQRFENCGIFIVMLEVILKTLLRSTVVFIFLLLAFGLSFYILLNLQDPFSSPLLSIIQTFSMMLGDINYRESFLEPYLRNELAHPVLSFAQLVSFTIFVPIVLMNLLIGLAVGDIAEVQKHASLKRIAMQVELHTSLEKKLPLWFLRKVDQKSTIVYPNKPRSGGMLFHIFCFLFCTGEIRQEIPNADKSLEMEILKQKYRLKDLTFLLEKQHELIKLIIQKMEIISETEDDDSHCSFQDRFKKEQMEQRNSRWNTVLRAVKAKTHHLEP

Question: With `O=C(/C=C/c1ccc(O)c(O)c1)O[C@H](Cc1ccc(O)c(O)c1)C(=O)O` [ROSA, rosmarinic acid] as the molecule, how does the inhibition at 100 µM (TRPV3 T636A) read?
Answer: 14.7%

Question: And the inhibition at 100 µM (TRPV3 T665A)?
Answer: 19.1%

Question: What about the inhibition at 50 µM (hTRPA1) of the same molecule?
Answer: 4.5 ± 3.6%
